From patent publication US20110028458A1, “INHIBITION OF CELL MIGRATION BY A FARNESYLATED DIBENZODIAZEPINONE” (THALLION PHARMACEUTICALS INC., priority 2008, published 2011)
Read-outs that look alike come from different tables or passages of the source.

Experiments:
MES-SA/DX5 = experiment: MTT growth inhibitory assay, MES-SA/DX5; type: cell-based, human; settings: 72 hours
Method: (§1) Growth inhibitory activity of TLN-4601 (Compound 1) and other dibenzodiazepinone analogs was evaluated on a panel of 4 human tumor cell lines: the human uterine sarcoma MES-SA and its doxorubicin-resistant P-glycoprotein over-expressing variant, MES-SA/DX5 as well as non-aggressive and highly aggressive human breast cell lines, MCF-7 and MDA-MB-231, respectively. These four cell lines were obtained from the American Type Culture Collection (Manassas, Va.) and cultured in RPMI plus 10% fetal bovine serum (FBS) and maintained at 37° C. with 5% CO2.
(§2) Exponentially growing cells (5,000 cells per well time; cell number determined with a hemocytometer) were seeded in 96-well flat-bottom plates and allowed to grow overnight. Cells were then incubated for 72 hours with three different concentrations of TLN-4601 or analogs: 30, 10, and 3 μM. The in vitro growth inhibitory activity was determined by a commercial MTT assay. All measurements were done in quadruplicate and each experiment was performed 2-3 times. The lower the value, the more cytotoxic is the compound.

MDA-MB-231 = experiment: MTT growth inhibitory assay, MDA-MB-231; type: cell-based, human; settings: 72 hours
Method: as §1, §2

MES-SA = experiment: MTT growth inhibitory assay, MES-SA; type: cell-based, human; settings: 72 hours
Method: as §1, §2

PBR = molecular target: T1, PBR (Rattus norvegicus, UniProt P16257); experiment: In-house PBR binding assay, [3H]PK11195, rat heart mitochondrial membrane
T1 construct: containing the enriched mitochondria membrane preparation (25 μg of protein); from tissue; host or cells: Sprague Dawley rat heart, enriched mitochondrial membrane preparation
Method: Hearts obtained from 3 Sprague Dawley rats were homogenized in 20 volumes of ice-cold 50 mM Tris-HCl, pH 7.5. After two centrifugations at 1500 g for 10 minutes at 4° C., the supernatant was centrifuged at 48000 g for 20 minutes at 4° C. The resulting pellet was resuspended in 50 mM Tris-HCl pH 7.5 and protein concentration was estimated by the Bradford colorimetric staining method using BSA as the standard. […] In parallel, non-specific binding was measured with the presence of 20 μM cold PK11195. Samples were distributed onto 96-well GF/B filtration plates and incubated for 60 minutes at 25° C. and then washed once with PBR-binding buffer.

MCF-7 = experiment: MTT growth inhibitory assay, MCF-7; type: cell-based, human; settings: 72 hours
Method: as §1, §2

SRBC = experiment: Hemolysis of SRBC; type: cell-based
[1] = tested on: breast carcinoma tumor cell lines; experiment: NCI panel, breast carcinoma; type: cell-based; settings: Homo sapiens; read-out: GI50 range, breast carcinoma
Description: (§3) A study measuring the in vitro cytotoxic activity of Compound 1 was first performed by the NCI (National Cancer Institute, U.S. National Institutes of Health, Bethesda, Md., USA) against a panel of human cancer cell lines. This screen utilizes 60 different human tumor cell lines, representing cancers of the blood, skin, lung, colon, brain, ovary, breast, prostate, and kidney. Further information regarding the NCI panel of human cancer lines can be obtained by following the links at the NCI world-wide website of the National Cancer Institute. The compound was sent and tested on three occasions (Mar. 31, 2003; Dec. 1, 2003; Mar. 27, 2007).

[2] = TLN-4601 concentrations in plasma and tissues of rats with C6 orthotopic brain tumors; type: in vivo; settings: rat; for concentration at 60 min: CIV for 60 min
Method: (R)-1-(2-chlorophenyl)-[…]N-(1-methyl-propyl)-3-isoquinoline carboxamide (R N-desmethyl PK11195), the precursor for the radioisotope-labeled (R)-PK11195, was purchased from ABX (Radeburg, Germany). The synthesis of ^11C-(R)-PK11195 was accomplished by a modification of the method of Camsonne et al. (J. Label. Compd. Radiopharm., 21: 985-991, 1984). In vivo PET studies were performed 14 days post tumor implantation. PET imaging studies were performed while the animals were anesthetized and placed in the supine position on the bed and at the center of the FOV of the CTI Concorde R4 microPET scanner (Siemens/CTI Concorde, Knoxville, Tenn.). Each dynamic PET study lasted 60 min and was initiated with an IV bolus administration of 11C-PK11195 (7.1-12.7 MBq) radioligand via the tail vein. Receptor occupancy studies were performed by acquisition of 11C-PK11195 images prior to and during TLN-4601 treatment over 60 minutes. TLN-4601 was administered by a bolus IV infusion (30 mg/kg) followed by continuous IV infusion (5 mg/h/kg) lasting through the dynamic scan. Attenuation correction factors, for each 6 rats, were determined using a 10 minute 57 Co transmission scan acquired immediately prior to the dynamic scan. In addition, all images were scatter corrected.
Following completion of in vivo studies, animals were sacrificed by anesthetic overdose and decapitated. Brain, tumor, and liver were snap-frozen in liquid nitrogen and stored frozen (−70° C.±10° C.). For blood samples, each blood sample was collected into a K2-EDTA tube and kept on wet ice for a maximum of 30 minutes. Blood samples were centrifuged under refrigeration (2 to 8° C.) for 10 minutes at 1,500 g (RCF). A volume of 25 μL of aqueous 4% w/v L-ascorbic acid was added to a volume of 225 μL of rat plasma in a clean tube, and the samples were thoroughly mixed by inversion. A volume of 125 uL of the resulting mixture was transferred to a separate tube for bioanalysis, while the remaining mixture was maintained as a backup, and both the bioanalysis and back-up portions were frozen on dry ice and stored frozen (−70° C.±10° C.).
Rat plasma and tissue samples were extracted with 9 volumes of acetone containing 100 ng/mL of the internal standard (Compound 2) and analysed by HPLC/MS/MS as described in Gourdeau et al (Cancer Chemother Pharmacol vol 61 pp. 911-921).

[3] = tested on: 60 different human tumor cell lines; experiment: NCI in vitro screening, 60 human tumor cell lines; type: cell-based; settings: 60 cell lines
Description: as §3

[4] = tested on: colon carcinoma tumor cell lines; experiment: NCI panel, colon carcinoma; type: cell-based; settings: Homo sapiens; read-out: GI50 range, colon carcinoma
Description: as §3

[5] = tested on: ovarian carcinoma tumor cell lines; experiment: NCI panel, ovarian carcinoma; type: cell-based; settings: Homo sapiens; read-out: GI50 range, ovarian carcinoma
Description: as §3

[6] = tested on: U87 glioma cells and HVMEC-B; experiment: Fluorimetric caspase-3 activity, U87 glioma versus brain endothelial cells; type: cell-based, human; settings: 0-30 μM, 18 hours
Method: To test the effect of Compound 1 on caspase 3 activity in endothelial cells, the following experiment was conducted. HVMEC-B and U87 glioma cells were treated with increasing concentrations of Compound 1 (0-30 μM) in serum-free media for 18 hours. Fluorimetric caspase-3 activity assay was performed as follows: cells were grown to about 60% confluence in 6-well dishes and treated with increasing concentrations of Compound 1 for 18 hours. Cells were then collected and washed in ice-cold PBS pH 7.0. Cells were subsequently lysed in Apo-Alert lysis buffer (Clontech, Palo Alto, Calif.) for 1 hr at 4° C. and the lysates were clarified by centrifugation. Caspase-3 activity was determined by incubation with 50 μM caspase-3-specific fluorogenic peptide substrate acetyl-Asp-Glu-Val-Asp-7-amino-4-trifluoromethylcoumarin (Ac-DEVD-AFC) in 96-well plates. The release of AFC was monitored for at least 30 min at 37° C. on a fluorescence plate reader (Molecular Dynamics (Amersham Biosciences Inc, Sunnyvale, Calif.)) (λex=400 nm, λem=505 nm).

U87 parental = experiment: Caspase-3 activity, U87 parental cells; type: cell-based, human; settings: 18 h, serum-free medium
Method: Firstly, cells (U87 parental, U87 transfected with EGFR-WT, and U87 transfected with mutated EGFR VIII) were plated in 6 well plates in DMEM containing 10% FBS. The following day, the plated cells were treated with increasing concentrations of Compound 1 (TLN-4601) in serum-free medium. After an 18 h incubation period in the presence of Compound 1, the treated cells were measured for caspase-3 activity using a commercial kit.

SF268 (CNS) = experiment: In vitro cytotoxic activity, propidium iodide, SF-268; type: cell-based, human; settings: 96 hrs
[7] = tested on: HT-29 (colorectal carcinoma); experiment: In vitro cytotoxic activity, propidium iodide, HT-29; type: cell-based, human; settings: 96 hrs
[8] = tested on: central benzodiazepine receptor (CBR; GABAA); experiment: CBR (GABAA) radioligand binding assay, [3H]flunitrazepam, rat brain; settings: 10 μM
Description: (§4) The procedures used were based on known assays: ACAT (from rat; Ref: Largis et al (1989), J. Lipid. Res., vol 30, 681-689), COX-2 (human; Ref: Riendeau et al (1997), Can. J. Physiol. Pharmacol., vol 75, 1088-1095 and Warner et al (1999), Pro. Natl. Acad Sci. USA, vol 96, 7563-7568), 5-LO (human; Ref: Carter et al (1991), J. Pharmacol. Exp. Ther., vol 256, no 3, 929-937, and Safayhi et al (2000), Planta Medica, vol 66, 110-113), PBR (from rat; Le Fur et al (1983), Life Sci. USA, vol 33, 449-457), CysLT1 (human; Martin et al (2001), Biochem. Pharmacol., vol 62, no 9, 1193-1200) and CBR (from rat; Damm et al (1978), Res. Comm. Chem. Pathol. Pharmacol., vol 22, 597-600 and Speth et al (1979), Life Sci., vol 24, 351-357).
(§5) Binding Assays were done at constant concentration of the compound, in 1% DMSO as vehicle, and are specified below each enzyme/receptor type in Table 3. Significance was obtained when a result was ≧50% binding or inhibition (underlined).
As Compound 1 was isolated from structural prediction through genetic analysis and activity identified through in vitro cytotoxic assays, its molecular target(s) were unknown at the time of discovery. Based on the structural characteristics of TLN-4601, we first investigated its binding affinity to the central (GABAA; CBR;) and peripheral (PBR) benzodiazepine receptors. The effect of TLN-4601 on CBR (GABAA) and PBR was initially evaluated in a radioligand-binding assay at MDS Pharma Services (Taipei, Tawain). CBR and PBR were obtained from rat brain and heart membrane-fractions, respectively. Displacement assays were done in the presence of 1 nM [^3H]-Flunitrazepam (CBR; GABAA) or 0.3 nM of [^3H]-PK11195 (PBR). TLN-4601 was tested at 0.01, 0.1, 0.5, 1, 5 and 10 μM. Non-specific binding was estimated in the presence of 10 μM diazepam (CBR) or 100 μM dipyrimadole (PBR) and assays were performed according to previous described methods (Damm et al Res Commun Chem Pathol Pharmacol 22, pp 597-600; Le Fur et al (1983) Life Science 33, pp 449-57). […] This contrats with current specific PBR ligands, which bind the PBR with nanomolar affinity yet their effect on cell proliferation, is in the micromolar range.

[9] = tested on: PC-3 (prostate adenocarcinoma); experiment: In vitro cytotoxic activity, propidium iodide, PC-3; type: cell-based, human; settings: 96 hrs
[10] = tested on: MDA-MB-231 (mammary gland adenocarcinoma); experiment: In vitro cytotoxic activity, propidium iodide, MDA-MB-231; type: cell-based, human; settings: 96 hrs
ACAT = ACAT enzyme assay, [14C]cholesterol ester quantitation; type: biochemical, rat; settings: 10 μM
Description: as §4
Binding assays were done for each of Compounds 1-12 and 46 using ACAT, COX-2, 5-LO, PBR and CysLT1 enzymes. The procedures used are based on the respective references mentioned above and the conditions are summarized in Tables 1 (enzyme assays) and 2 (radioligand receptor assays).
as §5

CC(C)=CCC/C(C)=C/CC/C(C)=C/CN1C(=O)c2cccc(O)c2Nc2c1cc(O)c(Br)c2O [Compound 97]
% T/C at 10 μM, MES-SA/DX5 (MES-SA/DX5): 83% | % T/C at 10 μM, MDA-MB-231 (MDA-MB-231): 68% | % T/C at 10 μM, MES-SA (MES-SA): 80% | IC50 (PBR): 2.6 µM | % T/C at 10 μM, MCF-7 (MCF-7): 28% | Hemolysis ED50 (concentration necessary to achieve 50% hemolysis of SRBC) (SRBC): 15.1 µg/mL

CC(C)=CCC/C(C)=C/CC/C(C)=C/CN1C(=O)c2cccc(O)c2Nc2c(O)cc(O)cc21 [Compound 1, 10-farnesyl-4,6,8-trihydroxy-5,10-dihydrodibenzo[b,e][1,4]diazepin-11-one]
GI50 [1]: 1.4 to 16.3 µM | concentration at 60 min ([2]; Sprague-Dawley, liver, intravenous, read-out: concentration in liver): 24800 ng/g | concentration at 60 min ([2]; Sprague-Dawley, plasma, intravenous, read-out: concentration in plasma): 16200 ng/g | Kp at 60 min ([2]; Sprague-Dawley, tumor / plasma, intravenous, read-out: tumor compared to plasma): 11 | concentration at 60 min ([2]; Sprague-Dawley, tumor, intravenous, read-out: accumulation in the tumor): 176 µg/mL | tumor compared to liver ([2]; in vivo): 7 fold | cytotoxic activity in the NCI panel [3]: broad cytotoxic activity in the low micromolar range | GI50 [4]: 3 to 17.3 µM | GI50 [5]: 2.5 to 6.2 µM | caspase-3 activity of U87 glioma cells compared to normal human brain endothelial cells [6]: 2-3 fold | increase in caspase-3 activation (U87 parental): approximately 15 fold | Hemolysis ED50 (concentration necessary to achieve 50% hemolysis of SRBC) (SRBC): 7.6 µg/mL

CC(=O)Oc1cc(OC(C)=O)c2c(c1)N(CC=C(C)CCC=C(C)CCC=C(C)C)C(=O)c1cccc(OC(C)=O)c1N2 [Compound 12]
GI50 (SF268 (CNS)): 1.95 µM | GI50 [7]: 9.33 µM | Percentage of inhibition or binding activity, CBR [8]: −24% | GI50 [9]: 1.2 µM | GI50 [10]: 2.79 µM | Hemolysis ED50 (concentration necessary to achieve 50% hemolysis of SRBC) (SRBC): >64 µg/mL | Percentage of inhibition or binding activity, ACAT (ACAT): 83%

CC(C)=CCC/C(C)=C/CC/C(C)=C/CN1C(=O)c2cccc(O)c2N(C)c2c1cc(O)c(Br)c2O [Compound 99]
% T/C at 10 μM, MES-SA/DX5 (MES-SA/DX5): 24% | % T/C at 10 μM, MDA-MB-231 (MDA-MB-231): 55% | % T/C at 10 μM, MES-SA (MES-SA): 28% | % T/C at 10 μM, MCF-7 (MCF-7): 50%

COc1cccc2c1Nc1c(OC)cc(O)cc1N(CC=C(C)CCC=C(C)CCC=C(C)C)C2=O [Compound 7]
GI50 (SF268 (CNS)): 18.5 µM | GI50 [7]: 14.1 µM | Percentage of inhibition or binding activity, CBR [8]: 21% | GI50 [9]: 14.6 µM | GI50 [10]: 17.4 µM | Hemolysis ED50 (concentration necessary to achieve 50% hemolysis of SRBC) (SRBC): >64 µg/mL | Percentage of inhibition or binding activity, ACAT (ACAT): 95%
